Measurements: patent US11224565B2, “N-acyldipeptide derivatives and their uses” (NeoStrata Company, Inc., priority 2011, dated 2022)
Peptide text beside a SMILES is read from it.

Tests used:
Type in all cases: in vivo, human
Nerve disorders = experiment: Summary of test results in volunteer subjects: nerve disorders; details: efficacy grade
From the text: (§1) In one embodiment, a composition for topical application to test its therapeutic effect was formulated by dissolving a bioactive dipeptide derivative of the present invention in a solution prepared from 40 parts water, 40 parts ethanol and 20 parts propylene glycol by volume (WEP442). In another embodiment, a composition was formulated by dissolving a bioactive dipeptide derivative of the present invention in a non-aqueous solution prepared from 80 parts ethanol and 20 parts propylene glycol by volume (EP82). In yet another embodiment, a composition was formulated first by dissolving a bioactive dipeptide derivative of the present invention in a solution prepared from 80 parts water and 20 parts propylene glycol by volume (WP82), and the solution thus prepared was mixed with an oil-in-water emulsion or cream. In another embodiment, the volunteer subject topically applied the test compositions containing N-acyldipeptide derivatives of the present invention on involved skin or lesions once or twice daily for several weeks or until the involved lesions completely cleared and clinically changed to normal skin. As a control study, the subject also topically applied a vehicle control composition on the involved skin or lesions twice daily for the same period. In yet another embodiment, the volunteer subject topically applied once or twice daily the test compositions containing N-acyldipeptide derivatives of the present invention on the skin site above arthritic joints or painful muscles to provide therapeutic effects for the systemic disorders via topical administration. Some test results are summarized as follows. ND: Nerve disorders

[1] = tested on: age spots including lentigines and keratosis; experiment: Topical treatment of age spots on face; details: twice daily, after 4 weeks; 1% (w/v) N-Ac-L-Cys-L-Tyr-NH2 in WEP442 pH 6.4 left side, 0.4% (w/v) N-Ac-L-Cys-L-Cys-NH2 in WEP442 right side
From the text: A subject had multiple age spots including lentigines and keratosis on their face. Topical treatments with conventional medications including hydroquinone with or without glycolic acid had been unsuccessful. The subject topically applied twice daily to the left side of their face 1% (w/v) N—Ac-L-Cys-L-Tyr-NH2 in WEP442, pH 6.4 (Example 5), and to the right side of their face 0.4% (w/v) N—Ac-L-Cys-L-Cys-NH2 in WEP442 (Example 5) for several months. […] Continued topical applications of the formulations should improve or eradicate lentigines and keratosis of the face.

[2] = tested on: Deranged immune disorders and inflammation; experiment: Summary of test results in volunteer subjects: deranged immune disorders and inflammation; details: efficacy grade
From the text: In one embodiment, a composition for topical application to test its therapeutic effect was formulated by dissolving a bioactive dipeptide derivative of the present invention in a solution prepared from 40 parts water, 40 parts ethanol and 20 parts propylene glycol by volume (WEP442). In another embodiment, a composition was formulated by dissolving a bioactive dipeptide derivative of the present invention in a non-aqueous solution prepared from 80 parts ethanol and 20 parts propylene glycol by volume (EP82). In yet another embodiment, a composition was formulated first by dissolving a bioactive dipeptide derivative of the present invention in a solution prepared from 80 parts water and 20 parts propylene glycol by volume (WP82), and the solution thus prepared was mixed with an oil-in-water emulsion or cream. In another embodiment, the volunteer subject topically applied the test compositions containing N-acyldipeptide derivatives of the present invention on involved skin or lesions once or twice daily for several weeks or until the involved lesions completely cleared and clinically changed to normal skin. As a control study, the subject also topically applied a vehicle control composition on the involved skin or lesions twice daily for the same period. In yet another embodiment, the volunteer subject topically applied once or twice daily the test compositions containing N-acyldipeptide derivatives of the present invention on the skin site above arthritic joints or painful muscles to provide therapeutic effects for the systemic disorders via topical administration. Some test results are summarized as follows. DI: Deranged immune disorders and inflammation

Disturbed keratinization = experiment: Summary of test results in volunteer subjects: disturbed keratinization; details: efficacy grade
From the text: as §1, with “DK: Disturbed keratinization” for “ND: Nerve disorders”

[3] = tested on: Aging related changes of skin, nail and hair; experiment: Summary of test results in volunteer subjects: aging related changes; details: efficacy grade
From the text: as §1, with “AG: Aging related changes of skin, nail and hair” for “ND: Nerve disorders”

[4] = tested on: inflammation, dermatitis, or eczema lesions; experiment: Topical application to chronic inflammation, dermatitis, eczema or allergic skin lesions, clinical evaluation
From the text: (§2) In another embodiment, the volunteer subject topically applied the test compositions containing N-acyldipeptide derivatives of the present invention on involved skin or lesions once or twice daily for several weeks or until the involved lesions completely cleared and clinically changed to normal skin. As a control study, the subject also topically applied a vehicle control composition on the involved skin or lesions twice daily for the same period.

insect bites = experiment: Topical application to insect bite lesions (itch, erythema, inflammation); details: 10% (w/w) cream on insect bites of left arm
Procedure: A subject, having intensive itch and erythema on their left arm from insect bites, topically applied 10% (w/w) N—Ac-L-Leu-Gly-NH2 cream as formulated in Example 3 on the involved lesions.
A subject had multiple lesions of insect bites (mosquitoes) over the face and arms with itch and inflammatory lesions of more than 1 cm in size. For testing purposes, the subject divided the lesions into three groups: the first group was treated with vehicle control, the second and third groups were treated with active compositions. The subject topically applied twice daily 0.5% (w/v) N—Ac-L-Val-L-Ala-NH2 solution in WEP442, pH 5.9 on the lesions of the second group, and 0.5% (w/v) N—Ac-L-Tyr-L-Tyr-NH2 solution in WEP442, pH 6.7 (Example 5) on the lesions of the third group. […] The lesions in the second and third groups also started to improve over the next few days. At the end of three days, while there was no discernible change in the lesions treated with vehicle control in the first group, the lesions in the second and third groups had 90-100% improvement with nearly complete disappearance of inflammatory lesions.
A subject had multiple lesions of chigger bites (grass mites) over the legs with intensive itch and red inflammatory lesions. The subject topically applied twice daily 0.5% (w/v) N—Ac-L-Val-L-Ala-NH2 solution in WEP442, pH 6.7 (Example 5) on the lesions. […] The lesions on the legs had 100% improvement as judged by clinical evaluation.
as §2

forearm skin = experiment: Skin thickness of forearm by micrometer calipers after topical application; details: for increase in skin thickness of treated left forearm: 1% (w/v) in WEP442 topically twice daily, vehicle forearm no change
Procedure: In one of the studies related to skin changes associated with aging, skin thickness was measured by micrometer calipers as follows. The skin was grasped with a 2×6 cm metal hinge; the internal faces of which were coated with emery cloth to prevent slippage, and manually squeezed to threshold subject discomfort. Combined thickness of two whole-skin layers including thickness of the two hinge leaves was measured with micrometer calipers. Thickness of the two hinge leaves was subtracted to determine the actual thickness of two whole-skin layers. Triplicate measurements on treated sites were done and an average number was used for calculation of the skin thickness. In other studies, test sites of skin 17 mm in diameter were used, the circular sites were marked with permanent ink. Intervening control sites were also 17 mm in diameter. Thickness of skin of all sites was measured directly by means of an electronic digital caliper. In this instance the jaws of the caliper were opened to 17 mm, applied with pressure to the skin sites and then closed to firm tightness. Thickness of skin was then read off the screen of the calipers. Measurements of all sites were made in triplicates.

[5] = Systemic administration under the tongue, tolerability; details: 1 mg powder under the tongue, twice daily for three days, person
Procedure: The subject took 1 mg N—Ac-L-Tyr-L-Tyr-OH powder under the tongue until it was dissolved completely. The same dose was taken twice daily for the next three days. […] Such systemic administration of the bioactive dipeptide derivative of the present invention is believed to have the potential of treating diseases, symptoms or syndromes associated with immune, tumors, cancers, nervous, vascular, musculoskeletal, cutaneous system, or other tissues and systems.

[6] = tested on: arthritis of both knees with edema and pain; experiment: Sublingual administration in arthritis of knees; details: 1 mg sublingually, kept under the tongue 15 minutes; after a few hours
Procedure: A subject had severe arthritis of both knees with edema and pain for many years. The conventional therapy had provided only temporary relief of knee pain and edema. The subject took N—Ac-L-Pro-Gly-NH2 (1 mg) sublingually and kept the dipeptide under the tongue for 15 minutes before swallowing.

Compound | ND (Nerve disorders) | age spot lesions of face [1] | DI [2] | DK (Disturbed keratinization) | AG [3] | also measured
CC(=O)N[C@@H](CS)C(=O)N[C@@H](Cc1ccc(O)cc1)C(N)=O [N-Ac-L-Cys-L-Tyr-NH2] (Ac-Cys-Tyr-NH2) | 3+ (3+: 75% Efficacy) | started to improve noticeably | 2+ (2+: 50% Efficacy) | 2+ (2+: 50% Efficacy) | 2+ (2+: 50% Efficacy) | –
CC(=O)N[C@@H](CC(C)C)C(=O)NCC(N)=O [N-Ac-L-Leu-Gly-NH2] (Ac-Leu-Gly-NH2) | 4+ (4+: 95-100% Efficacy) | – | 4+ (4+: 95-100% Efficacy) | 3+ (3+: 75% Efficacy) | 3+ (3+: 75% Efficacy) | improvement as judged by clinical evaluation ([4]; 6% (w/w) oil-in-water emulsion twice daily, chronic eczema large body areas, end of 10 days): 95%; itch after topical application ([4]; 6% (w/w) oil-in-water emulsion twice daily, chronic eczema large body areas, person): stopped within a few minutes; improvement as judged by clinical evaluation ([4]; 7% (w/w) oil-in-water emulsion twice daily, chronic eczema, end of 10 days): 90-100%; itch after topical application ([4]; 7% (w/w) oil-in-water emulsion twice daily, chronic eczema, person): stopped within a few minutes; improvement as judged by clinical evaluation ([4]; 10% (w/w) cream twice daily, chronic eczema right leg, end of one week): 50%; itch after topical application ([4]; 10% (w/w) cream twice daily, chronic eczema right leg, person): stopped within a few minutes; itch after topical application (insect bites): stopped within a few minutes; time the pruritus did not return (insect bites): 6 h; erythema and inflammation (insect bites; after 12 hours): improved
CC(=O)N[C@@H](Cc1ccc(O)cc1)C(=O)N[C@@H](Cc1ccc(O)cc1)C(=O)O [N-Ac-L-Tyr-L-Tyr-OH] (Ac-Tyr-Tyr-OH) | 4+ (4+: 95-100% Efficacy) | – | 3+ (3+: 75% Efficacy) | 3+ (3+: 75% Efficacy) | 4+ (4+: 95-100% Efficacy) | increase in skin thickness of treated left forearm (forearm skin; after 2 weeks): 16%; increase in skin thickness of treated left forearm (forearm skin; after 4 weeks): 17%; increase in skin thickness of treated left forearm (forearm skin; after one week): 16%; appearance of treated left forearm at end of treatment (forearm skin; 1-3% (w/v) in WEP442 topically twice daily for 1-6 weeks as in the example, vehicle forearm still loose, thin and wrinkled): more firm, smooth, plump, and less wrinkled when lifted; itch after topical application ([4]; 0.4% (w/v) in WEP442 pH 3.7 twice daily, inflammatory dermatitis on both arms): stopped within a few minutes; improvement as judged by clinical evaluation ([4]; 0.4% (w/v) in WEP442 pH 3.7 twice daily, inflammatory dermatitis on both arms, end of one week): 95%; irritation or side reactions [5]: did not provoke any irritation or side reactions
CC(=O)N[C@@H](CS)C(=O)N[C@@H](CS)C(N)=O [N-Ac-L-Cys-L-Cys-NH2] (Ac-Cys-Cys-NH2) | 2+ (2+: 50% Efficacy) | started to improve noticeably | 2+ (2+: 50% Efficacy) | 2+ (2+: 50% Efficacy) | 3+ (3+: 75% Efficacy) | –
CC(=O)N1CCC[C@H]1C(=O)NCC(N)=O [N-Ac-L-Pro-Gly-NH2] (Ac-Pro-Gly-NH2) | 4+ (4+: 95-100% Efficacy) | – | 3+ (3+: 75% Efficacy) | 2+ (2+: 50% Efficacy) | 2+ (2+: 50% Efficacy) | edema and pain of arthritic knees [6]: diminished substantially
